Measurements from the supplement of paper PMC13380429.

Columns and labels:
[1] = tested on: A549-ACE2; test: phospholipidosis EC50; higher = less potent phospholipidosis inducer
[2] = tested on: HepG2; test: relative viability EC50 (midpoint between 100% and the lowest measured viability); higher = less toxic; conditions: 72 h
[3] = tested on: U2OS; test: as above; conditions: 72 h
[4] = tested on: Calu-3; test: as above; conditions: 72 h
[5] = tested on: Caco-2; test: as above; conditions: 72 h
[6] = tested on: A549-ACE2 infected with SARS-CoV-2; test: SARS-CoV-2 infection rate relative to DMSO; higher = more infection; conditions: 24 h
[7] = tested on: A549-ACE2; test: drug-induced phospholipidosis relative to tamoxifen; higher = more phospholipidosis
[8] = tested on: A549-ACE2 infected with SARS-CoV-2; test: morphology score (similarity to uninfected cells); higher = more like uninfected cells; conditions: 24 h
[9] = tested on: HepG2; test: cell viability relative to DMSO; higher = less toxic; conditions: 72 h
[10] = tested on: U2OS; test: as above; conditions: 72 h
[11] = tested on: Calu-3; test: as above; conditions: 72 h
[12] = tested on: Vero E6; test: as above; conditions: 72 h
[13] = tested on: Caco-2; test: as above; conditions: 72 h
[14] = tested on: A549-ACE2 infected with SARS-CoV-2; test: cell count relative to DMSO; higher = less toxic; conditions: 24 h
[15] = tested on: HepG2; test: drug sensitivity score (DSS) for viability; higher = more toxic; extreme values may be limits of the assay; conditions: 72 h
[16] = tested on: U2OS; test: as above; conditions: 72 h
[17] = tested on: Calu-3; test: as above; conditions: 72 h
[18] = tested on: Vero E6; test: as above; conditions: 72 h
[19] = tested on: Caco-2; test: as above; conditions: 72 h
[20] = tested on: Vero E6; test: relative viability EC50 (midpoint between 100% and the lowest measured viability); higher = less toxic; conditions: 72 h

Nc1ncnc2c1c(-c1cccc(OCc3ccccc3)c1)cn2C1CC(CN2CCCC2)C1 (stereo in doubt) [NVP-ADW742]
Conditions	SARS-CoV-2 infection rate [%]	cell count [%]	cell viability [%]	morphology score	phospholipidosis EC50 [nM]
[1], 24 h	–	–	–	–	5360
[1], 72 h	–	–	–	–	3260
[6], 0.1 µM	98	–	–	–	–
[6], 0.3 µM	94	–	–	–	–
[6], 1 µM	75	–	–	–	–
[6], 3 µM	30	–	–	–	–
[8], 0.1 µM	–	–	–	0.14	–
[8], 0.3 µM	–	–	–	0.2	–
[8], 1 µM	–	–	–	0.46	–
[8], 3 µM	–	–	–	0.75	–
[9], 1 nM	–	–	89.3	–	–
[9], 10 nM	–	–	97.4	–	–
[9], 100 nM	–	–	101	–	–
[9], 1000 nM	–	–	69.9	–	–
[9], 10000 nM	–	–	23.2	–	–
[10], 1 nM	–	–	99.1	–	–
[10], 10 nM	–	–	98	–	–
[10], 100 nM	–	–	99	–	–
[10], 1000 nM	–	–	88.9	–	–
[10], 10000 nM	–	–	43.7	–	–
[11], 1 nM	–	–	99.2	–	–
[11], 10 nM	–	–	93.1	–	–
[11], 100 nM	–	–	107	–	–
[11], 1000 nM	–	–	102	–	–
[11], 10000 nM	–	–	44.2	–	–
[12], 1 nM	–	–	99.9	–	–
[12], 10 nM	–	–	95.6	–	–
[12], 100 nM	–	–	97.6	–	–
[12], 1000 nM	–	–	98.1	–	–
[12], 10000 nM	–	–	58.2	–	–
[13], 1 nM	–	–	98.9	–	–
[13], 10 nM	–	–	96.1	–	–
[13], 100 nM	–	–	98.4	–	–
[13], 1000 nM	–	–	74.6	–	–
[13], 10000 nM	–	–	34.1	–	–
[14], 0.1 µM	–	104	–	–	–
[14], 0.3 µM	–	93	–	–	–
[14], 1 µM	–	82	–	–	–
[14], 3 µM	–	101	–	–	–

Conditions	drug sensitivity score	relative viability EC50 [nM]
[2]	–	1190
[3]	–	1750
[4]	–	3320
[5]	–	1230
[15]	8.3	–
[16]	4.9	–
[17]	2.9	–
[18]	2.4	–
[19]	7	–

drug-induced phospholipidosis [%], [7]
Conditions	0.3 µM	0.833333 µM	3.33333 µM	6.66667 µM	10 µM	30 µM
24 h	8.61	13.3	31.4	113	145	158
48 h	8.35	9.24	33.7	54.9	–	–
72 h	7.79	5.46	31.5	52.2	–	–

CC[C@@H](C(=O)[C@@H](C)[C@@H](O)[C@H](C)[C@@H]1O[C@@H]([C@@H](CC)C(=O)O)CC[C@@H]1C)[C@H]1O[C@]2(C=C[C@@H](O)[C@]3(CC[C@@](C)([C@H]4CC[C@](O)(CC)[C@H](C)O4)O3)O2)[C@H](C)C[C@@H]1C [Salinomycin (Procoxacin)]
Conditions	drug sensitivity score	relative viability EC50 [nM]
[2]	–	513
[3]	–	1230
[4]	–	360
[5]	–	224
[15]	11.6	–
[16]	7.8	–
[17]	11.6	–
[18]	6.7	–
[19]	15.4	–
[20]	–	939

Conditions	SARS-CoV-2 infection rate, [6] [%]	cell count, [14] [%]	cell viability, [9] [%]	cell viability, [10] [%]	cell viability, [11] [%]	cell viability, [12] [%]	cell viability, [13] [%]	morphology score, [8]
1 nM	–	–	121	100	87.9	109	100	–
10 nM	–	–	108	105	91.4	103	98.7	–
100 nM	–	–	103	89.2	80.6	104	69.5	–
0.3 µM	28	118	–	–	–	–	–	0.84
1000 nM	–	–	36.6	68.7	53.1	70.1	38.3	–
3 µM	19	110	–	–	–	–	–	0.8
10 µM	26	116	–	–	–	–	–	0.51
10000 nM	–	–	25.3	22.6	26.5	44.7	17.3	–
30 µM	54	101	–	–	–	–	–	0

drug-induced phospholipidosis [%], [7]
Conditions	0.3 µM	0.833333 µM	3.33333 µM	6.66667 µM	10 µM	30 µM
24 h	2.06	-1.22	-9.27	4.33	16.4	32
48 h	3.07	-6.1	-3.84	10.2	–	–
72 h	12.7	–	–	–	–	–

O=C(c1ccc(Nc2nccc(-c3cc4ccccc4s3)n2)cc1)N1CCC(N2CCCC2)CC1 [IKK-16]
Conditions	SARS-CoV-2 infection rate [%]	cell count [%]	cell viability [%]	morphology score	phospholipidosis EC50 [nM]
[1], 24 h	–	–	–	–	1050
[1], 48 h	–	–	–	–	1530
[1], 72 h	–	–	–	–	1100
[6], 0.1 µM	101	–	–	–	–
[6], 0.3 µM	104	–	–	–	–
[6], 1 µM	62	–	–	–	–
[6], 3 µM	19	–	–	–	–
[8], 0.1 µM	–	–	–	-0.12	–
[8], 0.3 µM	–	–	–	-0.2	–
[8], 1 µM	–	–	–	0.57	–
[8], 3 µM	–	–	–	0.49	–
[9], 1 nM	–	–	95.9	–	–
[9], 10 nM	–	–	108	–	–
[9], 100 nM	–	–	91.6	–	–
[9], 1000 nM	–	–	86.9	–	–
[9], 10000 nM	–	–	-0.2	–	–
[10], 1 nM	–	–	97.4	–	–
[10], 10 nM	–	–	95.5	–	–
[10], 100 nM	–	–	97.6	–	–
[10], 1000 nM	–	–	91.7	–	–
[10], 10000 nM	–	–	0.8	–	–
[12], 1 nM	–	–	97.4	–	–
[12], 10 nM	–	–	99.5	–	–
[12], 100 nM	–	–	99.5	–	–
[12], 1000 nM	–	–	97.6	–	–
[12], 10000 nM	–	–	-0.2	–	–
[13], 1 nM	–	–	97.6	–	–
[13], 10 nM	–	–	102	–	–
[13], 100 nM	–	–	98.9	–	–
[13], 1000 nM	–	–	79.8	–	–
[13], 10000 nM	–	–	9.4	–	–
[14], 0.1 µM	–	102	–	–	–
[14], 0.3 µM	–	93	–	–	–
[14], 1 µM	–	111	–	–	–
[14], 3 µM	–	109	–	–	–

Conditions	drug sensitivity score	relative viability EC50 [nM]
[2]	–	2100
[3]	–	2480
[5]	–	1640
[15]	7.7	–
[16]	6.8	–
[18]	5.9	–
[19]	8.2	–
[20]	–	2980

drug-induced phospholipidosis [%], [7]
Conditions	0.3 µM	0.833333 µM	3.33333 µM	6.66667 µM	10 µM	30 µM
24 h	-2.91	8.17	163	140	179	55.6
48 h	-0.02	5.69	114	107	125	–
72 h	0.998	5.79	108	91.2	–	–

c1cc2c(cc1C1CCCCC1)c1c3n2CCNC3CCC1 (centres undefined) [tetrindole]
Conditions	SARS-CoV-2 infection rate [%]	cell count [%]	cell viability [%]	morphology score	phospholipidosis EC50 [nM]
[1], 24 h	–	–	–	–	6500
[1], 48 h	–	–	–	–	2520
[1], 72 h	–	–	–	–	3190
[6], 0.1 µM	102	–	–	–	–
[6], 0.3 µM	96	–	–	–	–
[6], 1 µM	77	–	–	–	–
[6], 3 µM	28	–	–	–	–
[8], 0.1 µM	–	–	–	0.02	–
[8], 0.3 µM	–	–	–	0.07	–
[8], 1 µM	–	–	–	0.29	–
[8], 3 µM	–	–	–	0.87	–
[9], 1 nM	–	–	101	–	–
[9], 10 nM	–	–	107	–	–
[9], 100 nM	–	–	95.8	–	–
[9], 1000 nM	–	–	83.2	–	–
[9], 10000 nM	–	–	0.5	–	–
[10], 1 nM	–	–	94.8	–	–
[10], 10 nM	–	–	104	–	–
[10], 100 nM	–	–	97.6	–	–
[10], 1000 nM	–	–	99.5	–	–
[10], 10000 nM	–	–	24.1	–	–
[11], 1 nM	–	–	91.3	–	–
[11], 10 nM	–	–	94.9	–	–
[11], 100 nM	–	–	93.8	–	–
[11], 1000 nM	–	–	88.7	–	–
[11], 10000 nM	–	–	0.8	–	–
[12], 1 nM	–	–	97.9	–	–
[12], 10 nM	–	–	91.4	–	–
[12], 100 nM	–	–	97.1	–	–
[12], 1000 nM	–	–	93.9	–	–
[12], 10000 nM	–	–	1.3	–	–
[13], 1 nM	–	–	101	–	–
[13], 10 nM	–	–	92.3	–	–
[13], 100 nM	–	–	92.9	–	–
[13], 1000 nM	–	–	98.5	–	–
[13], 10000 nM	–	–	6.9	–	–
[14], 0.1 µM	–	102	–	–	–
[14], 0.3 µM	–	101	–	–	–
[14], 1 µM	–	102	–	–	–
[14], 3 µM	–	117	–	–	–

Conditions	drug sensitivity score	relative viability EC50 [nM]
[2]	–	1880
[3]	–	3110
[4]	–	2220
[5]	–	3050
[15]	8.3	–
[16]	4.3	–
[17]	7.4	–
[18]	6.4	–
[19]	5.4	–
[20]	–	2680

drug-induced phospholipidosis [%], [7]
Conditions	0.3 µM	0.833333 µM	3.33333 µM	6.66667 µM	10 µM	30 µM
24 h	5.21	10.2	71.6	84.5	84.9	215
48 h	7.95	8.82	80.8	101	115	–
72 h	7.78	3.52	72.2	101	122	–
